Legend:
Experiment in all cases: relative viability (nuclei count vs DMSO), 5 days (fraction); higher = more cells survive
[1] = compound: CCCS(=O)(=O)Nc1ccc(F)c(C(=O)c2c[nH]c3ncc(-c4ccc(Cl)cc4)cc23)c1F [Vemurafenib] + Cc1cc(Nc2cc(N3CCN(C)CC3)nc(Sc3ccc(NC(=O)C4CC4)cc3)n2)n[nH]1 [Tozasertib] (partner 0.1 µM)
Summary of the method: (§1)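 Relative viability was taken as the ratio of nuclei in treated wells to nuclei in vehicle wells. Lung cancer cell lines in 1536-well plates received compounds by pin tool one day after seeding, either one drug alone or a fixed anchor-drug dose plus five library-drug doses (not always all listed) in √10 steps. Nuclei were counted on 4× images after 5 days of treatment, and values are medians of duplicate plates.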

[2] = compound: CCCS(=O)(=O)Nc1ccc(F)c(C(=O)c2c[nH]c3ncc(-c4ccc(Cl)cc4)cc23)c1F [Vemurafenib] + CS(=O)(=O)N1CCN(Cc2cc3nc(-c4cccc5[nH]ncc45)nc(N4CCOCC4)c3s2)CC1 [Pictilisib] (partner 1 µM)
Summary of the method: as §1

[3] = compound: CCCS(=O)(=O)Nc1ccc(F)c(C(=O)c2c[nH]c3ncc(-c4ccc(Cl)cc4)cc23)c1F [Vemurafenib] + CC(=O)c1c(C)c2cnc(Nc3ccc(N4CCNCC4)cn3)nc2n(C2CCCC2)c1=O [Palbociclib] (partner 0.5 µM)
Summary of the method: as §1

[4] = compound: COc1cccc2cc(-c3nc([C@H]4CC[C@H](C(=O)O)CC4)n4ncnc(N)c34)[nH]c12 [OSI-027] + CC(=O)Nc1cccc(-n2c(=O)n(C3CC3)c(=O)c3c(Nc4ccc(I)cc4F)n(C)c(=O)c(C)c32)c1 [Trametinib] (partner 0.02 µM)
Summary of the method: as §1

Cell Line	relative viability ([1]; first compound 0.03162 µM)	relative viability ([1]; first compound 0.1 µM)	relative viability ([1]; first compound 1 µM)	relative viability ([2]; first compound 0.03162 µM)	relative viability ([2]; first compound 0.1 µM)	relative viability ([2]; first compound 0.3162 µM)	relative viability ([2]; first compound 1 µM)	relative viability ([3]; first compound 0.03162 µM)	relative viability ([3]; first compound 0.1 µM)	relative viability ([3]; first compound 0.3162 µM)	relative viability ([3]; first compound 1 µM)	relative viability ([4]; first compound 0.01 µM)	relative viability ([4]; first compound 0.03162 µM)	relative viability ([4]; first compound 0.1 µM)	relative viability ([4]; first compound 0.3162 µM)	relative viability ([4]; first compound 1 µM)	relative viability ([1]; first compound 0.3162 µM)
LC-2-ad	0.396	0.466	0.44	0.436	0.396	0.635	0.432	0.449	0.466	0.481	0.442	0.903	0.872	0.945	0.927	0.694	–
LCLC-97TM1	0.206	0.268	0.166	0.195	0.194	0.39	0.149	–	0.22	0.22	0.207	0.168	0.182	0.157	0.147	0.168	0.269
LCLC-103H	0.476	0.395	0.487	0.585	0.506	0.584	0.59	0.426	0.448	0.501	0.467	0.708	0.645	0.65	0.609	0.689	0.493
LK-2	0.158	0.177	0.155	0.618	0.49	0.661	0.425	0.621	0.599	0.602	0.311	0.766	0.578	0.594	0.406	0.221	0.187
LOU-NH91	0.599	–	0.705	0.535	0.459	–	0.525	0.515	0.497	0.536	0.551	0.766	0.785	0.66	0.591	0.579	–
LU99A	0.245	0.256	0.264	0.282	0.311	0.297	0.286	0.386	0.401	–	0.373	0.581	0.508	0.424	0.342	0.209	0.316
LXF-289	0.195	0.172	0.169	0.711	0.724	0.698	0.758	0.548	0.526	0.601	0.667	0.681	0.707	0.752	0.612	0.357	0.149
NCI-H23	0.309	0.352	0.278	0.531	0.493	0.476	0.452	0.495	0.479	0.498	0.536	0.313	0.42	0.349	0.26	0.28	0.345
NCI-H322M	0.426	–	0.446	0.552	–	0.719	0.572	0.444	–	0.557	0.475	0.509	0.543	0.496	0.482	0.455	–
NCI-H358	0.122	0.107	0.111	0.291	–	0.417	0.299	0.113	0.139	0.175	0.132	0.114	0.129	0.123	0.112	0.117	0.107

— the supplement of paper PMC10307832
